# From patent US20210070748A1, “INHIBITORS OF BRUTONS TYROSINE KINASE” (Pharmacyclics LLC, priority 2015, published 2021)
# Target: T1, JAK3 (Homo sapiens, UniProt P52333)
# T1 sequence (P52333 1-1124): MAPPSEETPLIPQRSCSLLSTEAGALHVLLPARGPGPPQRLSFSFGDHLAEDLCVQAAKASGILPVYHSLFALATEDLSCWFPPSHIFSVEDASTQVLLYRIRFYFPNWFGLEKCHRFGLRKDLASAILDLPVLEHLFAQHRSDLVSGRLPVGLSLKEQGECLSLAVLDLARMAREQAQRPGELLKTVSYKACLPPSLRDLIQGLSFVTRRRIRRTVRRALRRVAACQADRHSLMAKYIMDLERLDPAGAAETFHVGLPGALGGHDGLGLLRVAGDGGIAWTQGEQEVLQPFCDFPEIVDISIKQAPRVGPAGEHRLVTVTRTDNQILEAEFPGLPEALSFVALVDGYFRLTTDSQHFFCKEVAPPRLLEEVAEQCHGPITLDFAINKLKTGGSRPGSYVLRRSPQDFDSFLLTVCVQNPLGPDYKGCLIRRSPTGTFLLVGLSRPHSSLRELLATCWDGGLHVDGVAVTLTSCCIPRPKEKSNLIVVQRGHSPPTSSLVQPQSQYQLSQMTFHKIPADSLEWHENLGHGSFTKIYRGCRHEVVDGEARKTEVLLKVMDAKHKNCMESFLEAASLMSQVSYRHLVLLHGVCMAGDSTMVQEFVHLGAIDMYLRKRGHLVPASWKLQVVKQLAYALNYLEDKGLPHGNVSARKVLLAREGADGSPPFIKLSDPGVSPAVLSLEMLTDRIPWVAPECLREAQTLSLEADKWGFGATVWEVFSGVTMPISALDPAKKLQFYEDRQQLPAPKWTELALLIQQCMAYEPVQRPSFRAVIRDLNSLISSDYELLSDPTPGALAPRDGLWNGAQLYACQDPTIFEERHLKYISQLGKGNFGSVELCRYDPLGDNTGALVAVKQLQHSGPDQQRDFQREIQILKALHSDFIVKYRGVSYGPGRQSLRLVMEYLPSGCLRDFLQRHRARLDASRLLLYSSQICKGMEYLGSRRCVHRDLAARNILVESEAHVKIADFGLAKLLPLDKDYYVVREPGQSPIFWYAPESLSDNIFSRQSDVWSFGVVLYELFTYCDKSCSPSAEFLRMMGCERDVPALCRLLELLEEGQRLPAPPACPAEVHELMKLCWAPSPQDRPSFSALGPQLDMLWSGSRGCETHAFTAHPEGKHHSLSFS
# Assay: Inhibition of a panel of kinases, in vitro HotSpot kinase assay: JAK3
# Format: biochemical
# Conditions: E compounds, Table 17; read-out: IC50 JAK3
row,SMILES,IC50 [µM]
1,"C=CC(=O)N[C@@H]1CCCN(c2nnc(C(N)=O)c(Nc3ccc(C4(C)CCN(C5CC5)CC4)cc3)n2)[C@@H]1C [Example E-2, 3-((2R,3R)-3-acrylamido-2-methylpiperidin-1-yl)-5-((4-(1-cyclopropyl-4-methylpiperidin-4-yl)phenyl)amino)-1,2,4-triazine-6-carboxamide]",0.01 to 0.1
2,"C=CC(=O)N[C@@H]1CCCN(c2nnc(C(N)=O)c(Nc3ccc(Cl)cc3)n2)[C@@H]1C [Example E-5, 3-((2R,3R)-3-acrylamido-2-methylpiperidin-1-yl)-5-((4-chlorophenyl)amino)-1,2,4-triazine-6-carboxamide]",< 0.01
3,"C=CC(=O)N1CCC[C@@H](Nc2nnc(C(N)=O)c(Nc3ccc(Cl)cc3)n2)[C@H]1C [Example E-7, 3-(((2R,3R)-1-acryloyl-2-methylpiperidin-3-yl)amino)-5-((4-chlorophenyl)amino)-1,2,4-triazine-6-carboxamide]",< 0.01
4,"Cc1cc(Nc2nc(N3CC[C@H](O)[C@@H](N4CCC[C@@H](Nc5cc(Cl)cc(C(F)(F)F)c5)C4=O)C3)nnc2C(N)=O)sn1 [Example E-10, 3-((3R,3'S,4'S)-3-(3-chloro-5-(trifluoromethyl)phenylamino)-4′-hydroxy-2-oxo-1,3′-bipiperidin-1-yl)-5-(3-methylisothiazol-5-ylamino)-1,2,4-triazine-6-carboxamide]",1 to 10
5,"C=CC(=O)N1CCC[C@@H](Nc2nnc(C(N)=O)c(Nc3cc(C)ns3)n2)C1 [Example E-11, (R)-3-(1-acryloylpiperidin-3-ylamino)-5-(3-methylisothiazol-5-ylamino)-1,2,4-triazine-6-carboxamide]",< 0.01
6,"C=CC(=O)N1CC[C@@H](N(C)c2nnc(C(N)=O)c(Nc3cc(C)ns3)n2)C1 [Example E-12, (R)-3-((1-acryloylpyrrolidin-3-yl)(methyl)amino)-5-(3-methylisothiazol-5-ylamino)-1,2,4-triazine-6-carboxamide]",< 0.01

# Same assay, conditions: Table 13, A compounds; 1 μM ATP; read-out: IC50 JAK3
row,SMILES,IC50 [µM]
1,"C[C@@H]1[C@H](NC(=O)c2ccc(C3CC3)cc2F)CCCN1c1cnc(C(N)=O)c(Nc2ccc(C3(C)CCN(C4CC4)CC3)cc2)n1 [Example A-174, 5-[(2R,3R)-3-(4-cyclopropyl-2-fluorobenzamido)-2-methylpiperidin-1-yl]-3-{[4-(1-cyclopropyl-4-methylpiperidin-4-yl)phenyl]amino}pyrazine-2-carboxamide]",0.01 to 0.1
2,"C[C@@H]1[C@H](NC(=O)c2ccc(C3CC3)cc2F)CCCN1c1cnc(C(N)=O)c(Nc2ccc(S(=O)(=O)N3CCCC3)cc2)n1 [Example A-175, 5-[(2R,3R)-3-(4-cyclopropyl-2-fluorobenzamido)-2-methylpiperidin-1-yl]-3-{[4-(pyrrolidine-1-sulfonyl)phenyl]amino}pyr-azine-2-carboxamide]",> 10
3,"C[C@@H]1[C@H](NC(=O)c2ccc(C3CC3)cc2F)CCCN1c1cnc(C(N)=O)c(Nc2ccc(N3CCN(C)C[C@@H]3C)cc2)n1 [Example A-176, 5-[(2R,3R)-3-(4-cyclopropyl-2-fluorobenzamido)-2-methylpiperidin-1-yl]-3-({4-[(2S)-2,4-dimethylpiperazin-1-yl]phenyl}amino)pyrazine-2-carboxamide]",0.1 to 1
4,"C[C@@H]1[C@H](NC(=O)c2ccc(C3CC3)cc2F)CCCN1c1cnc(C(N)=O)c(Nc2ccc(N3CCN(C)CC3)nc2)n1 [Example A-177, 5-[(2R,3R)-3-(4-cyclopropyl-2-fluorobenzamido)-2-methylpiperidin-1-yl]-3-{[6-(4-methylpiperazin-1-yl)pyridin-3-yl]amino}pyrazine-2-caoxamide]",1 to 10
5,"CN1CCC(n2cc(Nc3nc(N4CCC[C@@H](n5ccc6cc(C7CC7)ccc6c5=O)C4)cnc3C(N)=O)cn2)CC1 [Example A-178, 5-[(3R)-3-(6-cyclopropyl-1-oxo-1,2-dihydroisoquinolin-2-yl)piperidin-1-yl]-3-{[1-(1-methylpiperidin-4-yl)-1H-pyrazol-4-yl]amino}pyrazine-2-carboxamide]",1 to 10
6,"C[C@@H]1[C@H](NC(=O)c2ccc(C3CC3)cn2)CCCN1c1cnc(C(N)=O)c(Nc2ccc(N3CCN(C)CC3)cc2)n1 [Example A-179, 5-[(2R,3R)-3-(5-cyclopropyl-pyridine-2-amido)-2-methylpiperidin-1-yl]-3-{[4-(4-methylpiperazin-1-yl)phenyl]amino}pyrazine-2-carboxamide]",1 to 10
7,"C[C@@H]1[C@H](NC(=O)c2ccc(C3CC3)cc2Cl)CCCN1c1cnc(C(N)=O)c(Nc2ccc(N3CCN(C)CC3)cc2)n1 [Example A-180, 5-[(2R,3R)-3-(2-chloro-4-cyclopropylbenzamido)-2-methylpiperidin-1-yl]-3-{[4-(4-methylpiperazin-1-yl)phenyl]amino}pyrazine-2-carboxamide]",1 to 10
8,"C[C@@H]1[C@H](NC(=O)c2ccc(C3CC3)cc2)CCCN1c1cnc(C(N)=O)c(Nc2cc(CN3CCCCC3)ns2)n1 [Example A-181, 5-[(2R,3R)-3-(4-cyclopropylbenzamido)-2-methylpiperidin-1-yl]-3-{[3-(piperidin-1-ylmethyl)-1,2-thiazol-5-yl]amino}pyrazine-2-carboxamide]",0.1 to 1
9,"C[C@@H]1[C@H](NC(=O)c2ccc(C3CC3)cc2)CCCN1c1cnc(C(N)=O)c(Nc2cnn(CCN(C)C)c2)n1 [Example A-182, 5-[(2R,3R)-3-(4-cyclopropylbenzamido)-2-methylpiperidin-1-yl]-3-({1-[2-(dimethylamino)ethyl]-1H-pyrazol-4-yl}amino)pyrazine-2-carboxamide]",1 to 10
10,"Cc1cc(Nc2nc(N3CCC[C@@H](NC(=O)N4Cc5ccccc5C4=O)C3)cnc2C(N)=O)sn1 [Example A-183, N-[(3R)-1-{5-carbamoyl-6-[(3-methyl-1,2-thiazol-5-yl)amino]pyrazin-2-yl}piperidin-3-yl]-1-oxo-2,3-dihydro-1H-isoindole-2-carboxamide]",1 to 10
11,"C[C@@H]1[C@H](NC(=O)c2ccc(C(C)(C)C)cc2)CCCN1c1cnc(C(N)=O)c(Nc2ccc(N3CCN(C)CC3)cc2)n1 [Example A-184, 5-[(2R,3R)-3-(4-tert-butylbenzamido)-2-methylpiperidin-1-yl]-3-{[4-(4-methylpiperazin-1-yl)phenyl]amino}pyrazine-2-carboxamide]",> 10
12,"COCCN(C)Cc1cc(Nc2nc(N3CCC[C@@H](NC(=O)c4ccc(C5CC5)cc4)[C@H]3C)cnc2C(N)=O)sn1 [Example A-185, 5-((2R,3R)-3-(4-cyclopropylbenzamido)-2-methylpiperidin-1-yl)-3-(3-(((2-methoxyethyl)(meth-yl)amino)meth-yl)isothiazol-5-ylamino)pyr-azine-2-carboxamide]",1 to 10
13,"COCCn1cc(Nc2nc(N3CCC[C@@H](NC(=O)c4ccc(C5CC5)cc4)[C@H]3C)cnc2C(N)=O)cn1 [Example A-186, 5-((2R,3R)-3-(4-cyclopropylbenzamido)-2-methylpiperidin-1-yl)-3-(1-(2-methoxylethyl)-1H-pyrazol-4-ylamino)pyrazine-2-carboxamide]",1 to 10
14,"Cn1cc(Nc2nc(N3C[C@@H](NC(=O)c4ccc(C5CC5)cc4)CC(F)(F)C3)cnc2C(N)=O)cn1 [Example A-187, (S)-5-(5-(4-cyclopropylbenzamido)-3,3-difluoropiperidin-1-yl)-3-(1-methyl-1H-pyrazol-4-ylamino)pyrazine-2-carboxamide]",1 to 10
15,"Cn1cc(Nc2nc(N3C[C@H](NC(=O)c4ccc(C5CC5)cc4)CC(F)(F)C3)cnc2C(N)=O)cn1 [Example A-188, (R)-5-(5-(4-cyclopropylbenzamido)-3,3-difluoropiperidin-1-yl)-3-(1-methyl-1H-pyrazol-4-ylamino)pyrazine-2-carboxamide]",1 to 10
16,"C[C@@H]1[C@H](NC(=O)c2ccc(C3CC3)c(Cl)c2)CCCN1c1cnc(C(N)=O)c(Nc2ccc(N3CCN(C)CC3)cc2)n1 [Example A-189, 5-((2R,3R)-3-(3-chloro-4-cyclopropylbenzamido)-2-methylpiperidin-1-yl)-3-(4-(4-methylpiperazin-1-yl)phenylamino)pyrazine-2-carboxamide]",1 to 10
17,"C[C@@H]1[C@H](NC(=O)c2ccc(C3CC3)nc2)CCCN1c1cnc(C(N)=O)c(Nc2cnn(C)c2)n1 [Example A-190, 5-((2R,3R)-3-(6-cyclopropylnicotinamido)-2-methylpiperidin-1-yl)-3-(1-methyl-1H-pyrazol-4-ylamino)pyr-azine-2-carboxamide]",1 to 10
